Each block holds one molecule with its values, some of them ahead of it.
How the values were obtained:
Assay type in all cases: physicochemical
[1] = Stability of supersaturated naringenin solution (60 ppm): crystallization onset and final concentration
Procedure: To assess stability performance, the solution concentration of rhoifolin was determined over time. At specific time points 4 g of the solution were sampled, filtered and mixed with 1 g of acetonitrile. The solution was injected into a Vanquish UHPLC from Thermo Scientific coupled with a UV detector. The column was an Accucore Vanquish C18+(1.5 μm, 2.1×100 mm), eluted with a mixture of acetonitrile and water at 0.3 mL/min. The elution protocol was as follows: 5% acetonitrile (3 minutes), followed by a gradient from 5% to 80% of acetonitrile in 10 minutes. The corresponding peak of Rhoifolin was integrated, and the concentration was calculated based on a previously established calibration curve. The onset of crystallization is expressed as the point where the solution concentration passes below 95% of its initial value of 100%. The value was obtained by algorithmic curve fitting. […] In this example, and throughout “d” refers to days. Aqueous solutions of Berry extract were prepared at a concentration of 25 ppm, 50 ppm, 75 ppm, and 100 ppm by dissolving dry Berry extract in 99 g of buffer solution (citrate buffer, 100 mM, pH 2.8, 0.2% sodium benzoate). Then 1 gram of stock solution of naringenin in PG at 6000 ppm was added and mixed quickly with the aqueous phase. The samples were stored at 8° C., and aliquots were removed over the course of 40 days. A control solution of naringenin without Berry extract was also prepared. […] Aqueous solutions of Berry extract were prepared at a concentration of 100 ppm by dissolving dry Berry extract in 99 g of buffer solution (citrate buffer, 100 mM, pH 2.8, 0.2% sodium benzoate) with various additional additives. Then 1 gram of stock solution of naringenin in PG at 6000 ppm was added and mixed quickly with the aqueous phase. The samples were stored at 8° C., and aliquots were removed over the course of five months. A control solution of naringenin without Berry extract or additional additive was also prepared. A solution with Berry extract, but no additional additive was also prepared. The concentration of the additional additives is 100 ppm in each case. […] Saponin is Quillaja P (Firmenich SA). Aqueous solutions of black rice extracts were prepared at a concentration of 100 ppm by dissolving dry black rice extract in 99 g of buffer solution (citrate buffer, 100 mM, pH 2.8, 0.2% sodium benzoate) with various additional additives. Then 1 gram of stock solution of naringenin in PG at 6000 ppm was added and mixed quickly with the aqueous phase. The samples were stored at 8° C., and aliquots were removed over the course of five months. A control solution of naringenin without black rice extract or additional additive was also prepared. A solution with black rice extract, but no additional additive was also prepared. The concentration of the additional additives is 100 ppm in each case. […] Saponin is Quillaja P (Firmenich SA). Aqueous solutions were prepared in 99 gram of buffer solution (citrate buffer, 100 mM, pH 2.8, 0.2% sodium benzoate) with various additives. Then 1 gram of stock solution of naringenin in PG at 6000 ppm was added and mixed quickly with the aqueous phase. The samples were stored at 8° C., and aliquots were removed over the course of 5 months. A control solution of naringenin without additive was prepared. The concentration of the additives is 100 ppm in each case. […] Saponin is Quillaja P (Firmenich SA). Aqueous solutions of Berry extract were prepared at a concentration of 25 ppm by dissolving dry Berry extract in 99 g of buffer solution (citrate buffer, 100 mM, pH 2.8, 0.2% sodium benzoate) with various amounts of added saponin. Then 1 gram of stock solution of naringenin in PG at 6000 ppm was added and mixed quickly with the aqueous phase. The samples were stored at 8° C., and aliquots were removed over the course of five months. A control solution of naringenin without Berry extract or additional additive was also prepared. A solution with Berry extract, but no additional additive was also prepared. […]

[2] = Stability of supersaturated rhoifolin solution (20 ppm): solution concentration over time by UHPLC, onset of crystallization; conditions: for 50% / Fin. Conc. (ppm) / Onset / 50% (d), days for 50% crystallization of rhoifolin: room temperature, 40 days
Procedure: Aqueous solutions of various anthocyanin extracts were prepared at concentrations of 100 ppm, 200 ppm, and 300 ppm by dissolving dry anthocyanin extract in 99 g of buffer solution (citrate buffer, 100 mM, pH 2.8, 0.2% sodium benzoate). Then 1 gram of stock solution of rhoifolin in propylene glycol (PG) at 2000 ppm was added and mixed quickly with the aqueous phase. The samples were left at room temperature, and aliquots were removed over the course of three months. A control solution of rhoifolin without anthocyanin was also prepared.
To assess stability performance, the solution concentration of rhoifolin was determined over time. At specific time points 4 g of the solution were sampled, filtered and mixed with 1 g of acetonitrile. The solution was injected into a Vanquish UHPLC from Thermo Scientific coupled with a UV detector. The column was an Accucore Vanquish C18+(1.5 μm, 2.1×100 mm), eluted with a mixture of acetonitrile and water at 0.3 mL/min. The elution protocol was as follows: 5% acetonitrile (3 minutes), followed by a gradient from 5% to 80% of acetonitrile in 10 minutes. The corresponding peak of Rhoifolin was integrated, and the concentration was calculated based on a previously established calibration curve. The onset of crystallization is expressed as the point where the solution concentration passes below 95% of its initial value of 100%. The value was obtained by algorithmic curve fitting. […] In this example, and throughout “d” refers to days.
Aqueous solutions of black rice extract were prepared at a concentration of 100 ppm by dissolving dry black rice extract in 99 g of buffer solution (citrate buffer, 100 mM, pH 2.8, 0.2% sodium benzoate) with various additional additives. Then 1 gram of stock solution of rhoifolin in PG at 2000 ppm was added and mixed quickly with the aqueous phase. The samples were left at room temperature, and aliquots were removed over the course of 40 days. A control solution of rhoifolin without black rice or additional additives was also prepared. A solution with black rice, but no additional additive was also prepared. The concentration of the additional additives is 100 ppm in each case. […] Saponin is Quillaja P (Firmenich SA).
Aqueous solutions were prepared in 99 gram of buffer solution (citrate buffer, 100 mM, pH 2.8, 0.2% sodium benzoate) with various additives. Then 1 gram of stock solution of rhoifolin in PG at 2000 ppm was added and mixed quickly with the aqueous phase. The samples were left at room temperature, and aliquots were removed over the course of 40 days. A control solution of rhoifolin without additive was prepared. The concentration of the additives is 100 ppm in each case. […] Saponin is Quillaja P (Firmenich SA).

[3] = Stability of supersaturated phloretin solution (60 ppm): crystallization onset and final concentration
Procedure: To assess stability performance, the solution concentration of rhoifolin was determined over time. At specific time points 4 g of the solution were sampled, filtered and mixed with 1 g of acetonitrile. The solution was injected into a Vanquish UHPLC from Thermo Scientific coupled with a UV detector. The column was an Accucore Vanquish C18+(1.5 μm, 2.1×100 mm), eluted with a mixture of acetonitrile and water at 0.3 mL/min. The elution protocol was as follows: 5% acetonitrile (3 minutes), followed by a gradient from 5% to 80% of acetonitrile in 10 minutes. The corresponding peak of Rhoifolin was integrated, and the concentration was calculated based on a previously established calibration curve. The onset of crystallization is expressed as the point where the solution concentration passes below 95% of its initial value of 100%. The value was obtained by algorithmic curve fitting. […] In this example, and throughout “d” refers to days. Aqueous solutions of Berry extract were prepared at a concentration of 25 ppm, 50 ppm, 75 ppm, and 100 ppm by dissolving dry Berry extract in 99 g of buffer solution (citrate buffer, 100 mM, pH 2.8, 0.2% sodium benzoate). Then 1 gram of stock solution of phloretin in PG at 6000 ppm was added and mixed quickly with the aqueous phase. The samples were stored at 8° C., and aliquots were removed over the course of three months. A control solution of phloretin without Berry extract was also prepared. […] Aqueous solutions were prepared in 99 gram of buffer solution (citrate buffer, 100 mM, pH 2.8, 0.2% sodium benzoate) with saponin. Then 1 gram of stock solution of phloretin in PG at 6000 ppm was added and mixed quickly with the aqueous phase. The samples stored at 8° C., and aliquots were removed over the course of 5 months. A control solution of phloretin without saponin was prepared. The concentration of saponin was 100 ppm. […] Saponin is Quillaja P (Firmenich SA).

[4] = naringenin 60 ppm + 100 ppm Berry extract + 100 ppm additive, 8° C., five months
[5] = naringenin 60 ppm + 100 ppm additive alone, 8° C., 5 months
[6] = naringenin 60 ppm + 100 ppm black rice extract + 100 ppm additive, 8° C., five months
[7] = rhoifolin 20 ppm + 100 ppm additive alone
[8] = rhoifolin 20 ppm + 100 ppm black rice extract + 100 ppm additive
[9] = Example 4 control: naringenin 60 ppm without Berry extract, pH 2.8, 8° C., 40 days
[10] = Example 5 control: naringenin 60 ppm without Berry extract or additive, 8° C., five months
[11] = Example 6 control: naringenin 60 ppm without black rice extract or additive, 8° C., five months
[12] = Example 7 control: naringenin 60 ppm without additive, 8° C., 5 months
[13] = Example 8 control: naringenin 60 ppm without Berry extract or additive, 8° C., five months
[14] = Example 9 control: naringenin 60 ppm without saponin, 8° C., five months
[15] = Example 10 control: phloretin 60 ppm without Berry extract, pH 2.8, 8° C., three months
[16] = Example 11 control: phloretin 60 ppm without saponin, 8° C., 5 months
[17] = Example 2 control: rhoifolin 20 ppm without black rice extract or additive
[18] = Example 3 control: rhoifolin 20 ppm without additive
[19] = control: rhoifolin 20 ppm without extract, pH 2.8, room temperature

Fin. Conc. (ppm) [1, 4]: 34.1 ppm
Onset [1, 4]: 15.8 days
Fin. Conc. (ppm) [1, 5]: 31.0 ppm
Onset [1, 5]: 7.5 days
Fin. Conc. (ppm) [1, 6]: 35.4 ppm
Onset [1, 6]: 18.3 days
50% [2, 7]: 13.6 days
Fin. Conc. (ppm) [2, 7]: 4.04 ppm
Onset [2, 7]: 7.5 days
50% (d), days for 50% crystallization of rhoifolin [2, 8]: 18.8 days
Fin. Conc. (ppm) [2, 8]: 5.96 ppm
Onset [2, 8]: 10.8 days
SMILES: C=C1C[C@@]23CC[C@H]4[C@@](C)(CCC[C@@]4(C)C(=O)O[C@@H]4O[C@H](CO)[C@@H](O)[C@H](O)[C@H]4O)[C@@H]2CC[C@]1(O[C@@H]1O[C@H](CO)[C@@H](O)[C@H](O[C@@H]2O[C@H](CO)[C@@H](O)[C@H](O)[C@H]2O)[C@H]1O[C@@H]1O[C@H](CO)[C@@H](O)[C@H](O)[C@H]1O)C3 [Rebaudioside A, reference compound]

Fin. Conc. (ppm) [1, 9]: 24.6 ppm
Onset [1, 9]: 0.3 days
Fin. Conc. (ppm) [1, 10]: 24.6 ppm
Onset [1, 10]: 0.3 days
Fin. Conc. (ppm) [1, 11]: 24.6 ppm
Onset [1, 11]: 0.3 days
Fin. Conc. (ppm) [1, 12]: 24.6 ppm
Onset [1, 12]: 0.3 days
Fin. Conc. (ppm) [1, 13]: 24.6 ppm
Onset [1, 13]: 0.3 days
Fin. Conc. (ppm) [1, 14]: 24.6 ppm
Onset [1, 14]: 0.3 days
SMILES: O=C1C[C@@H](c2ccc(O)cc2)Oc2cc(O)cc(O)c21 [Naringenin, naringenin]

Fin. Conc. (ppm) [3, 15]: 33.8 ppm
Onset [3, 15]: 13.6 days
Fin. Conc. (ppm) [3, 16]: 33.8 ppm
Onset [3, 16]: 13.6 days
SMILES: O=C(CCc1ccc(O)cc1)c1c(O)cc(O)cc1O [Phloretin, phloretin]

50% (d), days for 50% crystallization of rhoifolin [2, 17]: 8.2 days
Fin. Conc. (ppm) [2, 17]: 3.32 ppm
Onset [2, 17]: 4.1 days
50% [2, 18]: 8.2 days
Fin. Conc. (ppm) [2, 18]: 3.32 ppm
Onset [2, 18]: 4.1 days
Onset (d) of crystallization ([2]; control: rhoifolin 20 ppm without anthocyanin extract, citrate buffer pH 2.8, room temperature): 4.1 days
50% Rem (d), days when only 50% of initial rhoifolin remained in solution [2, 19]: 8.2 days
Fin. Conc. (ppm) of rhoifolin in solution [2, 19]: 3.3 ppm
SMILES: C[C@@H]1O[C@@H](O[C@H]2[C@H](Oc3cc(O)c4c(=O)cc(-c5ccc(O)cc5)oc4c3)O[C@H](CO)[C@@H](O)[C@@H]2O)[C@H](O)[C@H](O)[C@H]1O [Rhoifolin, rhoifolin]

Reference: US20230054857A1, “FLAVONOID COMPOSITIONS AND RELATED USES” (Firmenich SA, priority 2020, published 2023)
